Reference: US7732618B2, “Benzimidazole acetic acids exhibiting CRTH2 receptor antagonism and uses thereof” (Wyeth, priority 2004, dated 2010)

Molecular target: T1, human CRTH2 (Homo sapiens, UniProt Q9Y5Y4)
T1 sequence (Q9Y5Y4 1-395): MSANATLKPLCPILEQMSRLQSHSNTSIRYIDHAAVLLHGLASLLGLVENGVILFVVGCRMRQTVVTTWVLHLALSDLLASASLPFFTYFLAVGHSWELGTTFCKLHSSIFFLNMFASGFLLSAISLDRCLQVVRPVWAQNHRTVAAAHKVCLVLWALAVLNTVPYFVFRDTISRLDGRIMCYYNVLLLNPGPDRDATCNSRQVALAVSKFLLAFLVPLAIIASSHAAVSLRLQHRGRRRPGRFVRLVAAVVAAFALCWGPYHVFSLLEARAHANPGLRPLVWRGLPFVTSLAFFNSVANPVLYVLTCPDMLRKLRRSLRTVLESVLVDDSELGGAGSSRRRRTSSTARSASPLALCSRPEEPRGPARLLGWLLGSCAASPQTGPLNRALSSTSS
Test: CRTH-2 binding assay (scintillation proximity assay, inhibition of 3H-PGD2 binding)
Set-up: expressed in transfected cells; host or cells: 293EBNA-hCRTH2 cells (membrane preparation)
Conditions: membranes from 293EBNA-hCRTH2 cells, 3H-PGD2 3.6 nM; Ki calculated from IC50
Description: A CRTH2 binding assay was developed to measure the ability of compounds to inhibit the binding of PGD2 to human CRTH2 using a scintillation proximity assay.
Membranes containing hCRTH2 receptors were prepared from 293EBNA-hCRTH2 cells (a 293EBNA cell line stably expressing human CRTH2). The cells were grown to confluency, harvested and washed with PBS. The cells were resuspended in 10 mM Hepes pH 7.4, 1 mM EDTA and protease inhibitors and incubated for 30 min on ice. The cells were homogenized and centrifuged for 10 min at 1000×g. The supernate was centrifuged for 30 min at 100,000×g and the membrane pellet was then resuspended in 10 mM Hepes pH 7.4 and 1 mM EDTA. The protein concentration of the membrane preparation was determined by Bradford assay (Bio-Rad).
The ability of compounds to inhibit the interaction of PGD2 to human CRTH2 was determined at seven compound concentrations. Compounds were serially diluted in DMSO then diluted into CRTH2 buffer (10 mM Hepes pH 7.4, 1 mM EDTA, 10 mM MnCl2) to six times the final desired concentration. 20 μL of the diluted compounds were transferred into non-surface binding 96-well plates (Corning). Each concentration was done in triplicate. In addition to test compounds, each plate contained 12 control wells. Six of these wells contained 20 μL of CRTH2 buffer. These wells were used to measure total binding. Six wells contained 20 μL of CRTH2 buffer plus 1.5 mM indomethacin. These wells were used to measure non-specific binding. Next, 293EBNA-hCRTH2 membranes were resuspended in CRTH2 buffer with glycerol (10 mM Hepes pH 7.4, 1 mM EDTA, 10 mM MnCl2, 25% glycerol) so that the final concentration was approximately 20 μg/100 μL. Polylysine-coated yttrium silicate SPA beads (Amersham) were added to the membrane mix to a concentration of 0.4 mg/100 μL and finally ^3H-PGD2 was added to the membrane/SPA bead mix to 3.6 nM. 100 μL of the membrane/SPA bead/^3H-PGD2 mix was added to each well of the non-surface binding plates containing the diluted compound or controls. The plates were incubated for 2 hours at room temperature with shaking and then the plates were counted on a Microbeta scintillation counter (Perkin Elmer) for 1 min per well.
IC50 values were determined from the experimental results by nonlinear regression using Prism 4.0 software. The IC50 values were then used in conjunction with the Kd for hCRTH2 and the ^3H-PGD2 concentration used in the experiment to calculate the Ki for each compound.

SMILES	Ki
CCCc1nc2cc(N(Cc3ccccc3)C(=O)c3c(F)cccc3F)ccc2n1CC(=O)O [Example 68, {5-[Benzyl-(2,6-difluoro-benzoyl)-amino]-2-propyl-benzoimidazol-1-yl}-acetic acid]	< 10000 nM
CCCc1nc2cc(N(Cc3ccccc3)C(C)=O)ccc2n1CC(=O)O [Example 57, [5-(Acetyl-benzyl-amino)-2-propyl-benzoimidazol-1-yl]-acetic acid]	< 10000 nM
CCCc1nc2c(N(C(C)C)S(=O)(=O)c3cccc(F)c3)cccc2n1CC(=O)O [Example 38, {4-[(3-Fluoro-benzenesulfonyl)-isopropyl-amino]-2-propyl-benzoimidazol-1-yl}-acetic acid]	< 10000 nM
CCCCC(CC)c1nc2cc(NS(=O)(=O)c3ccc(F)cc3)ccc2n1CC(=O)O (stereo not drawn) [Example 10, [2-(1-Ethyl-pentyl)-5-(4-fluoro-benzenesulfonylamino)-benzoimidazol-1-yl]-acetic acid]	> 10000 nM
CCCc1nc2cc(N(Cc3ccc(F)cc3)C(=O)C3CC3)ccc2n1CC(=O)O [Example 31, {5-[Cyclopropanecarbonyl-(4-fluoro-benzyl)-amino]-2-propyl-benzoimidazol-1-yl}-acetic acid]	< 1000 nM
CCCc1nc2cc(N(Cc3ccccc3)C(=O)c3ccccc3F)ccc2n1CC(=O)O [Example 64, {5-[Benzyl-(2-fluoro-benzoyl)-amino]-2-propyl-benzoimidazol-1-yl}-acetic acid]	> 10000 nM
CCCc1nc2cc(N(Cc3ccccc3C(F)(F)F)S(=O)(=O)c3ccc(F)cc3)ccc2n1CC(=O)O [Example 45, {5-[(2-Trifluoromethyl-benzyl)-(4-fluoro-benzenesulfonyl)-amino]-2-propyl-benzoimidazol-1-yl}-acetic acid]	< 1000 nM
CCCc1nc2cc(N(Cc3ccccc3)C(=O)CC(C)C)ccc2n1CC(=O)O [Example 59, {5-[Benzyl-(3-methyl-butyryl)-amino]-2-propyl-benzoimidazol-1-yl}-acetic acid]	< 10000 nM
CCCc1nc2cc(N(C(C)C)S(=O)(=O)c3ccc(F)cc3)ccc2n1CC(=O)O [Example 21, {5-[(4-Fluoro-benzenesulfonyl)-isopropyl-amino]-2-propyl-benzoimidazol-1-yl}-acetic acid]	< 100 nM
CCCc1nc2c(N(Cc3ccc(F)cc3)S(=O)(=O)c3cccc(F)c3)cccc2n1CC(=O)O [Example 37, {4-[(3 -Fluoro-benzenesulfonyl)-(4-fluoro-benzyl)-amino]-2-propyl-benzoimidazol-1-yl}-acetic acid]	< 1000 nM
CCCc1nc2cc(N(Cc3ccccc3)C(=O)c3ccc(F)c(F)c3)ccc2n1CC(=O)O [Example 67, {5-[Benzyl-(3,4-difluoro-benzoyl)-amino]-2-propyl-benzoimidazol-1-yl}-acetic acid]	< 1000 nM
CCCc1nc2cc(N(Cc3ccc(F)cc3)S(=O)(=O)CC)ccc2n1CC(=O)O [Example 29, {5-[Ethanesulfonyl-(4-fluoro-benzyl)-amino]-2-propyl-benzoimidazol-1-yl}-acetic acid]	< 1000 nM
CCCc1nc2cc(N(Cc3ccc(OC(F)(F)F)cc3)S(=O)(=O)c3ccc(F)cc3)ccc2n1CC(=O)O [Example 53, {5-[(4-Trifluoromethoxy-benzyl)-(4-fluoro-benzenesulfonyl)-amino]-2-propyl-benzoimidazol-1-yl}-acetic acid]	< 100 nM
CCCc1nc2cc(N(Cc3ccccc3)C(=O)C3CCCCC3)ccc2n1CC(=O)O [Example 61, [5-(Benzyl-cyclohexanecarbonyl-amino)-2-propyl-benzoimidazol-1-yl]-acetic acid]	< 10000 nM
CCCCc1nc2cc(N(Cc3ccccc3)S(=O)(=O)c3ccc(F)cc3)ccc2n1CC(=O)O [Example 15, {5-[Benzyl-(4-fluoro-benzenesulfonyl)-amino]-2-butyl-benzoimidazol-1-yl}-acetic acid]	< 1000 nM
